From patent publication US8652718B2, “Resin composition, image-forming material, and image-forming method” (Fuji Xerox Co., Ltd., priority 2012, dated 2014)
Converted amounts (≈) assume the structure as drawn. Read-outs that look alike come from different tables or passages of the source.

Legend:
[1] = Measurement of solubility in tetrahydrofuran; type: physicochemical; conditions: for Solubility in tetrahydrofuran compared to Formulae (II-1) and (II-2): comparison in words from Table 1; for solubility: tetrahydrofuran, 24 °C, organic solvent or mixture, thermodynamic from solid, 24±1° C.
Protocol: The solubility of the compound represented by Formula (I-1) in tetrahydrofuran (24±1° C.) is measured in the following manner.
After 10.00 mg of the compound (dark brown solid) represented by Formula (I-1) is mixed with 5.00 ml of tetrahydrofuran in a screw vial, the vial is irradiated with ultrasonic waves for 30 minutes while the vial is sealed with a cap, and left to stand overnight at room temperature. The obtained solution is filtered through a membrane filter having a pore size of 25 nm, and a dry weight of the dark brown solid remaining on the filter is measured. As a result, the weight of the compound represented by Formula (I-1) dissolved in 5.00 ml of tetrahydrofuran is found, whereby the solubility in tetrahydrofuran may be calculated.

[2] = Visible near-infrared absorption spectrum in a tetrahydrofuran solution; type: physicochemical
Source text: The dark brown solid obtained as above is identified by an infrared absorption spectrum (KBr tablet method), a ^1H-NMR spectrum, a mass spectrum, and a visible near-infrared absorption spectrum. As a result, the dark brown solid described above is confirmed to have a molecular structure represented by Formula (I-1).
Visible Near-Infrared Absorption Spectrum (FIG. 1): […]

[3] = read-out: Solubility in tetrahydrofuran
[4] = read-out: Solubility in tetrahydrofuran, Relative evaluation

| SMILES | Solubility in tetrahydrofuran compared to Formulae (II-1) and (II-2) [1] | solubility [1, 3] | solubility [1, 4] | Maximum absorption wavelength (λmax) [2] | Molar absorption coefficient at the maximum absorption wavelength (εmax) [2] |
| --- | --- | --- | --- | --- | --- |
| CC(C)(C)c1ccc(C2=CC(=CC3=C([O-])/C(=C/c4cc(-c5ccc(C(C)(C)C)cc5)[s+]c(-c5ccc(C(C)(C)C)cc5)c4)C3=O)C=C(c3ccc(C(C)(C)C)cc3)S2)cc1 [Formula I-1] | superior solubility in tetrahydrofuran | 1300 µg/mL | ≥ 1000 µg/mL | 908 nm | 269000 M⁻¹ cm⁻¹ |
| CCCCc1ccc(C2=CC(=CC3=C([O-])/C(=C/c4cc(-c5ccc(CCCC)cc5)[s+]c(-c5ccc(CCCC)cc5)c4)C3=O)C=C(c3ccc(CCCC)cc3)S2)cc1 [Formula I-2] | superior solubility in tetrahydrofuran | 1100 µg/mL | ≥ 1000 µg/mL | 910 nm | 210000 M⁻¹ cm⁻¹ |
| CCc1ccc(C2=CC(=CC3=C([O-])/C(=C/c4cc(-c5ccc(CC)cc5)[s+]c(-c5ccc(CC)cc5)c4)C3=O)C=C(c3ccc(CC)cc3)S2)cc1 [Formula I-3] | superior solubility in tetrahydrofuran | 600 µg/mL | 100 to 1000 µg/mL | 908 nm | 180000 M⁻¹ cm⁻¹ |
| O=C1C(C=C2C=C(c3ccccc3)SC(c3ccccc3)=C2)=C([O-])/C1=C/c1cc(-c2ccccc2)[s+]c(-c2ccccc2)c1 [II-1, reference compound] |  | < 50 µg/mL | < 100 µg/mL | 901 nm | 207000 M⁻¹ cm⁻¹ |
| Cc1ccc(C2=CC(=CC3=C([O-])/C(=C/c4cc(-c5ccc(C)cc5)[s+]c(-c5ccc(C)cc5)c4)C3=O)C=C(c3ccc(C)cc3)S2)cc1 [II-2, reference compound] |  | 300 µg/mL (≈ 455 µM) | 100 to 1000 µg/mL (≈ 152 to 1520 µM) | 905 nm | 190000 M⁻¹ cm⁻¹ |
| CCCCCCc1ccc(C2=CC(=CC3=C([O-])/C(=C/c4cc(-c5ccc(CCCCCC)cc5)[s+]c(-c5ccc(CCCCCC)cc5)c4)C3=O)C=C(c3ccc(CCCCCC)cc3)S2)cc1 [II-3, reference compound] |  | 1100 µg/mL (≈ 1170 µM) | ≥ 1000 µg/mL | 910 nm | 200000 M⁻¹ cm⁻¹ |
